What is called pIC50 is the IC50 on a negative log10 scale, so that one unit is a factor of ten.

Our source for the IC50 and selectivity ratio values is ChEMBL document CHEMBL1154702, “Enhancement of the antimalarial activity of ciprofloxacin using a double prodrug/bioorganometallic approach” (J Med Chem, 2009).

Series [1] concerns Plasmodium falciparum. Briefly: Antimalarial activity against chloroquine-resistant Plasmodium falciparum W2 infected in erythrocytes after 48 hrs by [3H]hypoxanthine incorporation assay. It is filed as functional, organism-based.
Series [2] deals with Plasmodium falciparum. Briefly: Antimalarial activity against chloroquine-resistant Plasmodium falciparum W2 infected in erythrocytes after 96 hrs by [3H]hypoxanthine incorporation assay. Type of series: functional, organism-based.
Series [3] deals with Plasmodium falciparum. Briefly: Antimalarial activity against chloroquine-sensitive Plasmodium falciparum IMT10500 infected in erythrocytes after 48 hrs by [3H]hypoxanthine incorporation assay. It is filed as functional, organism-based.
Series [4] deals with Plasmodium falciparum. Kind of series: Antimalarial activity against chloroquine-sensitive Plasmodium falciparum 3D7 infected in erythrocytes after 96 hrs by [3H]hypoxanthine incorporation assay. Type of series: functional, organism-based.
The test system of series [5] is Plasmodium falciparum. Briefly: Antimalarial activity against chloroquine-sensitive Plasmodium falciparum IMTVo1 infected in erythrocytes after 48 hrs by [3H]hypoxanthine incorporation assay. It is filed as functional, organism-based.
Series [6] relates to Plasmodium falciparum. Briefly: Antimalarial activity against […] Plasmodium falciparum IMT K2 infected in erythrocytes after 48 hrs by [3H]hypoxanthine incorporation assay. Type of series: functional, organism-based.
The test system of series [7] is Plasmodium falciparum. Briefly: Antimalarial activity against chloroquine-sensitive Plasmodium falciparum PA infected in erythrocytes after 48 hrs by [3H]hypoxanthine incorporation assay. Type of series: functional, organism-based.
Series [8] relates to Plasmodium falciparum. Kind of series: Antimalarial activity against chloroquine-sensitive Plasmodium falciparum IMTL1 infected in erythrocytes after 48 hrs by [3H]hypoxanthine incorporation assay. Type of series: functional, organism-based.
Series [9] deals with Plasmodium falciparum. Briefly: Antimalarial activity against chloroquine-sensitive Plasmodium falciparum FCM29 infected in erythrocytes after 48 hrs by [3H]hypoxanthine incorporation assay. It is filed as functional, organism-based.
The subject of series [10] is Plasmodium falciparum. Briefly: Antimalarial activity against chloroquine-sensitive Plasmodium falciparum 3D7 infected in erythrocytes after 48 hrs by [3H]hypoxanthine incorporation assay. It is filed as functional, organism-based.
For series [11], the system named is Plasmodium falciparum. Kind of series: Antimalarial activity against chloroquine-sensitive Plasmodium falciparum FCR3 infected in erythrocytes after 48 hrs by [3H]hypoxanthine incorporation assay. Type of series: functional, cell-based. To be noted: FCR-3/Gambia.
Series [12] can be described thus: Cytotoxicity against concanavalin-stimulated BALB/c mouse splenocytes after 72 hrs by resazurin dye reduction method. It is filed as cell-based. To be noted: Splenocyte. On the technique in general: The colour change of resazurin is a common sign of viable cells or microbes.
Series [13] can be described thus: Therapeutic index, ratio of IC50 for concanavalin-stimulated BALB/c mice (Mus musculus) splenocytes to IC50 for Plasmodium falciparum 3D7. Conditions: read-out: Ratio IC50.
The nature of series [14]: Therapeutic index, ratio of IC50 for concanavalin-stimulated BALB/c mice (Mus musculus) splenocytes to IC50 for Plasmodium falciparum W2 after 48 hrs. To be noted: read-out: Ratio IC50.
The subject of series [15] is Plasmodium falciparum. Briefly: Antimalarial activity against Plasmodium falciparum NF54. It is filed as functional, organism-based.
The test system of series [16] is Plasmodium falciparum. Kind of series: Antimalarial activity against Plasmodium falciparum 3D7. Type of series: functional, organism-based.

Molecules are shown by their SMILES. pIC50: −log10 of the molar value.

For `C[C@H]1c2cccc(O)c2C(=O)C2=C(O)[C@]3(O)C(=O)C(C(N)=O)=C(O)[C@@H](N(C)C)[C@@H]3[C@@H](O)[C@@H]21` [DOXYCYCLINE], the pIC50 in the series with Plasmodium falciparum [1] was 4.97; in the series on Plasmodium falciparum [2] it was 5.92; with Plasmodium falciparum [3] (read-out: IC50), 4.88; in the series with Plasmodium falciparum [4], 5.77; in the series on Plasmodium falciparum [5] (read-out: IC50), 5.04; with Plasmodium falciparum [6], 4.83. Moreover, the negative logarithm of the IC50 (pIC50) in the series with Plasmodium falciparum [7] was 4.89; in the series on Plasmodium falciparum [8], 5.08; with Plasmodium falciparum [9], 4.96; in the series on Plasmodium falciparum [10], 4.92; in the series on Plasmodium falciparum [11] (read-out: IC50), 5.01.

In the case of `CCN(CC)CCCC(C)Nc1ccnc2cc(Cl)ccc12` (stereo unspecified) [CHLOROQUINE], the pIC50 in [12] was 5.46.

Take `O=C(O)c1cn(C2CC2)c2cc(N3CCNCC3)c(F)cc2c1=O` [CIPROFLOXACIN]: the pIC50 with Plasmodium falciparum [1] is 3.92; in [12] it was less than 4.40; in the series with Plasmodium falciparum [2] it was 4.85; in the series on Plasmodium falciparum [3], 4.13; in the series with Plasmodium falciparum [4] it was 5.00; with Plasmodium falciparum [5] it was 4.29. Besides, the pIC50 is 4.09 in the series with Plasmodium falciparum [6]; 4.34 in the series on Plasmodium falciparum [7]; 4.38 in the series with Plasmodium falciparum [8]; 4.34 in the series with Plasmodium falciparum [9]; 4.34 with Plasmodium falciparum [10]; 4.13 in the series with Plasmodium falciparum [11]. Also, the selectivity ratio in series [13] is more than 0.8. Moreover, the selectivity ratio at 48 h in [14] was more than 0.3.

For the molecule `COc1c(N2C[C@@H]3CCCN[C@@H]3C2)c(F)cc2c(=O)c(C(=O)O)cn(C3CC3)c12` [MOXIFLOXACIN], the negative-log IC50 (pIC50) in the series on Plasmodium falciparum [15] and in the series with Plasmodium falciparum [16] was not above 5.00 each time.

As for `Cc1c(F)c(N2CCNC(C)C2)cc2c1c(=O)c(C(=O)O)cn2C1CC1` (stereo unspecified) [GREPAFLOXACIN], the negative-log IC50 (pIC50) in the series with Plasmodium falciparum [15] and with Plasmodium falciparum [16] was not above 5.00 throughout.

On to `COc1c(N2CCNC(C)C2)c(F)cc2c(=O)c(C(=O)O)cn(C3CC3)c12` (stereo unspecified) [GATIFLOXACIN], for which the negative logarithm of the IC50 (pIC50) in the series on Plasmodium falciparum [15] and with Plasmodium falciparum [16] was not above 5.00 in each case.

Take `C=C[C@H]1CN2CC[C@H]1C[C@H]2[C@H](O)c1ccnc2ccc(OC)cc12` [QUININE]: the pIC50 in the series on Plasmodium falciparum [1] was 3.28; in the series on Plasmodium falciparum [2] it was 3.34; with Plasmodium falciparum [5] (read-out: IC50) it was 6.37; in the series with Plasmodium falciparum [6], 8.17; in the series with Plasmodium falciparum [7], 6.24; in the series on Plasmodium falciparum [8], 6.27. Besides, the pIC50 was 8.24 with Plasmodium falciparum [9], 3.73 with Plasmodium falciparum [10] and 6.19 with Plasmodium falciparum [11] (read-out: IC50).

`CCOC(=O)c1cn(C2CC2)c2cc(N3CCNCC3)c(F)cc2c1=O` [CIPROFLOXACIN ETHYL ESTER]: the negative logarithm of the IC50 (pIC50) in the series with Plasmodium falciparum [1] is 5.41; in series [12], less than 4.40; in the series on Plasmodium falciparum [2], 5.51; in the series on Plasmodium falciparum [4] it was 5.80; in the series on Plasmodium falciparum [15], not above 5.00; with Plasmodium falciparum [16] it was not above 5.00. Besides, the negative-log IC50 (pIC50) with Plasmodium falciparum [10] is 5.51. The selectivity ratio in [13] was more than 12.9. In series [14], the selectivity ratio at 48 h is more than 10.2.

For the molecule `C[C@H]1[C@H](OC(=O)CCC(=O)O)O[C@@H]2O[C@@]3(C)CC[C@H]4[C@H](C)CC[C@@H]1[C@@]24OO3` [ARTESUNATE], the pIC50 was 5.62 in the series with Plasmodium falciparum [1]; 5.68 in the series with Plasmodium falciparum [2]; 5.70 in the series with Plasmodium falciparum [4]; 8.74 with Plasmodium falciparum [6]; 8.70 with Plasmodium falciparum [7]; 5.77 in the series on Plasmodium falciparum [10].
